We go through one molecule from patent US20090259275A1, “METHODS OF TREATING BRAIN DAMAGES” (priority 2008, published 2009).

Experiment [1] relates to association between actin and TIAM1. Briefly: Coimmunoprecipitation of actin with TIAM1 in EF-exposed explants. The format is cell-based, rat. The settings on record: DAPV. An excerpt:
(§1) The methods for immunocytochemistry and coimmunoprecipitation have been described in detail in Ning et al., “Dual neuroprotective signaling mediated by downregulating two distinct phosphatase activities of PTEN,” J. Neurosci., 24, 4052-60, (2004); and Liu et al., “Ischemic insults direct glutamate receptor subunit 2-lacking AMPA receptors to synaptic sites,” J. Neurosci., 26, 5309-19 (2006), both of which are incorporated herein by reference. For immunocytochemical labeling, the guinea-pig anti-DCX (obtained from Santa Cruz Biotechnology, Santa Cruz, Calif.), mouse anti-nestin (obtained from Chemicon, Billerica, Mass.), rabbit anti-NR1 (obtained from Chemicon), and rabbit anti-NR2B (obtained from Novas Biologicals, Littleton, Colo.) primary antibodies were used. Secondary antibodies consisted of Alex Fluor 488 and 596 were purchased from Molecular Probes, Eugene, Oreg. Imaging was performed with a Zeiss LSM 510 META confocal microscope and image processing was performed with Image J software (obtained from NIH). For coimmunoprecipitation assay, rabbit anti-TIAM1 (obtained from Santa Cruz), rabbit anti-NR2B (obtained from Novus Biologicals), rabbit anti-phosphorylated PAK1 at serine 423 (obtained from Santa Cruz) and mouse anti-actin (obtained from Chemicon) were used. […]

Experiment [2] deals with T1, NMDAR association with TIAM1 (Rattus norvegicus, UniProt Q00960).
T1 construct: from tissue; host or cells: rat (Wistar) E17-18 lateral ganglionic eminence explant cultures
T1 sequence (Q00960 27-1482, other chains not shown): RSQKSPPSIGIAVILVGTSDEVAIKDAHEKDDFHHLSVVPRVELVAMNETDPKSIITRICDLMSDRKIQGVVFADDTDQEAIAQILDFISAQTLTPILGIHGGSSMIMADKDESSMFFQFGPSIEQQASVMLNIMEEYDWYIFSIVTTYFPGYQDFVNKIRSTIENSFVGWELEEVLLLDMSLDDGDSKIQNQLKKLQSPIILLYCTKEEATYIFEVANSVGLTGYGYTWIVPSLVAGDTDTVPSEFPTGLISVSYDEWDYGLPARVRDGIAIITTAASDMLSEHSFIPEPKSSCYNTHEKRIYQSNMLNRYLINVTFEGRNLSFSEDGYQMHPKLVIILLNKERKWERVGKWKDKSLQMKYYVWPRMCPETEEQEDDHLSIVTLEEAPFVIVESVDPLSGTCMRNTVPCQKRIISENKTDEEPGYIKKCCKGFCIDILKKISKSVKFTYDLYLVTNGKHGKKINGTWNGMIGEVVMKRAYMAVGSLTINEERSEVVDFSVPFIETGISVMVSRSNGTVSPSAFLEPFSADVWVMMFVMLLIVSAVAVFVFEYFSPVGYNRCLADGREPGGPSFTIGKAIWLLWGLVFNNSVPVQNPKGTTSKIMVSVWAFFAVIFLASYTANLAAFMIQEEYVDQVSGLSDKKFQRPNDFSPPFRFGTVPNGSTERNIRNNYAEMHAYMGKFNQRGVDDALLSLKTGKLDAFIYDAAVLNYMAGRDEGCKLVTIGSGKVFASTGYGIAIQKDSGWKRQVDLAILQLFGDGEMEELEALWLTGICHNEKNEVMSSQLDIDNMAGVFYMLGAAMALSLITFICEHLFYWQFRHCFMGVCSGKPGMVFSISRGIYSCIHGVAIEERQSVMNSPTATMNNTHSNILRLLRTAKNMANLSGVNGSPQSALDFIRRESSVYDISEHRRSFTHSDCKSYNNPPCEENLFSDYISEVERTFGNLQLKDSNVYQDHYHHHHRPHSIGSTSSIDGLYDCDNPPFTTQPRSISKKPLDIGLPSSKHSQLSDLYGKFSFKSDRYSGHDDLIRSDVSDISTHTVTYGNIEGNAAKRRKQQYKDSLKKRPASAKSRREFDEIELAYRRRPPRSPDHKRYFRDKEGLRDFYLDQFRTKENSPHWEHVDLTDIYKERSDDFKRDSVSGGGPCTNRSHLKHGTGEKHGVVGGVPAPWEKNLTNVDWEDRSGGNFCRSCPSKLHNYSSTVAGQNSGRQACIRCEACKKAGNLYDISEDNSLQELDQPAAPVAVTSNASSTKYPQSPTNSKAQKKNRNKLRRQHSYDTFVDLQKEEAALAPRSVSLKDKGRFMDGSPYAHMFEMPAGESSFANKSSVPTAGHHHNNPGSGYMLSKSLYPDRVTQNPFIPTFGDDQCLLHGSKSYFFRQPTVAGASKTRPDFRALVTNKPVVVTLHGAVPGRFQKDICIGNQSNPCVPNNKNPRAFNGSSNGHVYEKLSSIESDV
Briefly: Coimmunoprecipitation of NMDAR (NR2B) with TIAM1 in EF-exposed LGE explants. In kind it is cell-based. To be noted: DAPV 10 μM, EF 250 mV/mm for 60 minutes. The source says: The methods for immunocytochemistry and coimmunoprecipitation have been described in detail in Ning et al., “Dual neuroprotective signaling mediated by downregulating two distinct phosphatase activities of PTEN,” J. Neurosci., 24, 4052-60, (2004); and Liu et al., “Ischemic insults direct glutamate receptor subunit 2-lacking AMPA receptors to synaptic sites,” J. Neurosci., 26, 5309-19 (2006), both of which are incorporated herein by reference. For immunocytochemical labeling, the guinea-pig anti-DCX (obtained from Santa Cruz Biotechnology, Santa Cruz, Calif.), mouse anti-nestin (obtained from Chemicon, Billerica, Mass.), rabbit anti-NR1 (obtained from Chemicon), and rabbit anti-NR2B (obtained from Novas Biologicals, Littleton, Colo.) primary antibodies were used. Secondary antibodies consisted of Alex Fluor 488 and 596 were purchased from Molecular Probes, Eugene, Oreg. Imaging was performed with a Zeiss LSM 510 META confocal microscope and image processing was performed with Image J software (obtained from NIH). For coimmunoprecipitation assay, rabbit anti-TIAM1 (obtained from Santa Cruz), rabbit anti-NR2B (obtained from Novus Biologicals), rabbit anti-phosphorylated PAK1 at serine 423 (obtained from Santa Cruz) and mouse anti-actin (obtained from Chemicon) were used.
Rearrangement of the actin cytoskeletal network is an essential process in neural migration. […]

The next experiment deals with PAK1 phosphorylation. Briefly: Immunoblot of PAK1 phosphorylation (serine 423) in EF-exposed explants. In kind it is cell-based, rat. The settings on record: DAPV; EF 250 mV/mm for 60 min.
Description: as §1
(In general: In western blotting, separated proteins are transferred to a membrane and probed.)

In experiment [3] the test system is association of p-PAK1 with TIAM1. Briefly: Coimmunoprecipitation of p-PAK1 with TIAM1 in EF-exposed LGE explants. In kind it is cell-based, rat. The settings on record: DAPV.
Description: as §1

The test system of experiment [4] is NSPC migration toward cathode. Briefly: EF-directed NSPC migration in LGE explant cultures. In kind it is cell-based, rat. To be noted: DAPV 10 μM, EF 30 mV/mm for 10 hours. As to the method: Explants (100-300 μm in diameter) were selected for observation. For the electric field (EF) application, agar-salt bridges were used to connect silver/silver chloride electrodes in beakers containing Steinberg's solution to pools of excess culture medium at either side of the chamber. The electric field strengths were measured directly at the beginning and end of the observation period. For time-lapse observation, HEPES acid (25 mM) was added to the culture medium to adjust pH to 7.4. Time-lapse imaging was performed with an inverted microscope (Zeiss Axiovert 200M, obtained from Zeiss, Oberkochen, Germany) that was used to record digitally the migration of NSPCs for 3 hours. […] At the end of exposure period explants were fixed in 4% paraformaldehyde and then digitally photographed for quantification. […] To quantify velocity and directedness of cell motion, the cell centroid was calculated with Image J software (obtained from NIH). […] The directedness of motion was expressed as a function of cosine. It was calculated by defining movements in the X-plane towards the cathode (or mock-cathode) as negative. […] For quantification of long-term EF-exposed cells, the symmetry was expressed as a function of the distribution of cells around the explant. Total cell numbers in the cathode and anode facing quadrants were calculated. […]

Entries after “also recorded” stand apart in the source; their conditions may differ.

For the molecule `N[C@H](CCCP(=O)(O)O)C(=O)O` [DAPV], in experiment [1], the “EF-induced increase of association between actin and TIAM1” value was “suppressed; also recorded: inhibited”. Also, the “EF-induced increase of NMDAR (NR2B) association with TIAM1” value in experiment [2] is recorded as “inhibited; also recorded: suppressed”. The “EF-mediated increase of PAK1 phosphorylation” value in the experiment on PAK1 phosphorylation was “significantly attenuated; also recorded: blocked”. In addition, in experiment [3], the “EF-enhanced association of p-PAK1 with TIAM1” value was “abolished”. In addition, the “NSPC migration toward cathode on the cathode side of explants” value in experiment [4] is reported as “significantly inhibited; also recorded: significantly attenuated”.
